Laboratory results published in patent US7053052B2, “Therapies involving mutated heat shock transcription factor” (priority 1997, dated 2006).

Test system: HeLa-CAT cells
Test: Recovery of translation after heat shock (3H-leucine pulse-labeling)
Type: cell-based, human
Details: contribution of untransfected cells subtracted
Method: In a typical experiment, parallel HeLa-CAT cultures in 60 mm dishes (more than 70% confluent) were transfected with 0.75 ug of EGFP construct and 2.25 ug of HSF1(+) or HSF1(−) construct and 15 ul Lipofectamine™. Before exposing the cultures to heat shock about 36 hours post transfection, cells were replated (to achieve about 70% confluence). Note that in some experiments, HSF1(+) was delivered by infection with an adenoviral vector rather than by transfection. Cultures were exposed to a 42° C./1 hour heat shock and then returned to 37° C. Rates of protein synthesis before, during, and at different times after a subsequent, more severe heat shock were determined by pulse-labeling of cells with ^3H-leucine. For labeling, cultures were washed two times with prewarmed PBS, and one ml of labeling medium (leucine-free DMEM with 2% FBS and 65 uCi of ^3H-leucine (179 Ci/mmolc)) was added. […] Relative rates of protein synthesis were calculated as cpm/ug protein. […]
To find out whether HSF1(−) could function as a negatively acting factor, HeLa-CAT cells containing integrated copies of an hsp70B-chloramphenicol acetyltransferase (CAT) gene were co-transfected with an HSF1(−) and an EFGP-expressing construct. […] Rates of protein synthesis were assessed by pulse-labeling cells with ^3H-leucine. […]

## human HSF1d453–523 [HSF1(−)]
First experiment
  corrected rate of protein synthesis one hour after heat shock: about 5%
Second experiment
  corrected rate of protein synthesis one hour after heat shock: ~24%
